Source: patent publication US8541588B2, “Sulfonamide derivatives” (Pfizer Limited, priority 2009, dated 2013)

The molecules below were run against T1, Nav1.7 (or SCN9A) channel; HEK cells stably transfected with hSCN9A (Homo sapiens, UniProt Q15858) (assay: Nav1.7 block, PatchXpress 7000 automated whole-cell voltage clamp, estimated IC50 (EIC50)). Settings: PatchXpress platform; hSCN9A HEK cells held at V1/2 of inactivation; estimated IC50.
T1 construct: expressed in transfected cells
Format: cell-based

T1 sequence (Q15858 whole entry): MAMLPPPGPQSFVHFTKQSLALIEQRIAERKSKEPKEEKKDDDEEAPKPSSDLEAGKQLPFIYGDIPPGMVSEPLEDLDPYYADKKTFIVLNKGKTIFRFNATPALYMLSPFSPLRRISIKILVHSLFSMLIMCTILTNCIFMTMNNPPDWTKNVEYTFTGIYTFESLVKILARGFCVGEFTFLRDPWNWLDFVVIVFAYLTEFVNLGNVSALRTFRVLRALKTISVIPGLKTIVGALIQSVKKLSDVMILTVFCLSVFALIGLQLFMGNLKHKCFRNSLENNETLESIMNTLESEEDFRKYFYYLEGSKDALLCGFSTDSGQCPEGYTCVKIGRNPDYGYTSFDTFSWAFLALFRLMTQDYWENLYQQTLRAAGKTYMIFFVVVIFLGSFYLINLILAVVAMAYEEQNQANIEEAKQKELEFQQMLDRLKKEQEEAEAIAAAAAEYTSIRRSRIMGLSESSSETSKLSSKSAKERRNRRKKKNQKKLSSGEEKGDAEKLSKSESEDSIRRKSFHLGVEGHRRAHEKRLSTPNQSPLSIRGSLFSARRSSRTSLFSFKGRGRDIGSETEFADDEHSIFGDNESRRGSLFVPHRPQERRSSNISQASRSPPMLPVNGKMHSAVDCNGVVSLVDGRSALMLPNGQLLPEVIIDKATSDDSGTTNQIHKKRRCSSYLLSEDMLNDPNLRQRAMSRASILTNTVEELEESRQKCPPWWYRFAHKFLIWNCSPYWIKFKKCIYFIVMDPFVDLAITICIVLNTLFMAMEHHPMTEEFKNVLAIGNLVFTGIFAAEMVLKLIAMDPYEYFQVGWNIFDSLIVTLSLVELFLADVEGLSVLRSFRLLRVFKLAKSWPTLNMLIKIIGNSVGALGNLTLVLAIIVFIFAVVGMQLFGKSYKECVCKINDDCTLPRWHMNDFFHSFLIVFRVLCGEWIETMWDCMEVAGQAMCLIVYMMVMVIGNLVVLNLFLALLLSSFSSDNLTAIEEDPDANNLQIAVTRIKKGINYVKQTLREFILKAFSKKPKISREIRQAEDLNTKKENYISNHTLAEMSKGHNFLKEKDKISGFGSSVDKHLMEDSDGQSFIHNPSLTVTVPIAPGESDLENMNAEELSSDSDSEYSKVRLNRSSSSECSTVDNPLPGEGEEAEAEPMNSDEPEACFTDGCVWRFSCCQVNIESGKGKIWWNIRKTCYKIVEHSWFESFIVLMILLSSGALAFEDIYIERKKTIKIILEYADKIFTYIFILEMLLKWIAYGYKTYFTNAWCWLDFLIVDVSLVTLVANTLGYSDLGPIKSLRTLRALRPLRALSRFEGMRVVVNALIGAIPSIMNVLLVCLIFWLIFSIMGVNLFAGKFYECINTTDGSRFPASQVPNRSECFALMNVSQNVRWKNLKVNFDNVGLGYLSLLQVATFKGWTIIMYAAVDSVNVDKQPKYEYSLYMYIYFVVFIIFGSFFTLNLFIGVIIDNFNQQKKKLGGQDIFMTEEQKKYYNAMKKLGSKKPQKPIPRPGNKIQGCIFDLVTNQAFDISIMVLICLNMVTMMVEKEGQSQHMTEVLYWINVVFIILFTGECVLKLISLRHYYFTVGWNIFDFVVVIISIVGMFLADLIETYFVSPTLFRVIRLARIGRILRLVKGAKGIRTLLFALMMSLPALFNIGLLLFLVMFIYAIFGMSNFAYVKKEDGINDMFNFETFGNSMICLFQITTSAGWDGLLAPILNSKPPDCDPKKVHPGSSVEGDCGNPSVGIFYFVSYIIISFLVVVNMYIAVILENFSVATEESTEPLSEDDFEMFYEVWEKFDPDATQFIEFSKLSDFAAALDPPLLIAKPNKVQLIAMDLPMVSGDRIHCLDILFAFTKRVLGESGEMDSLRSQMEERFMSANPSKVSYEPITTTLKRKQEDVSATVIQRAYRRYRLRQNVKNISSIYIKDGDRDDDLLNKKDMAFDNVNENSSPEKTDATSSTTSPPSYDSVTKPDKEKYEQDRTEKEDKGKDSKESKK

Row | IC50 [nM] | Compound
1 | 1290 | N#Cc1cc(S(=O)(=O)Nc2ncns2)ccc1Oc1ccccc1-c1cc(F)ccc1F [Example 36, 3-cyano-4-[(2′,5′-difluorobiphenyl-2-yl)oxy]-N-1,2,4-thiadiazol-5-ylbenzenesulfonamide]
2 | 110 | N#Cc1cc(S(=O)(=O)Nc2ncns2)ccc1Oc1ccccc1-c1ccccc1 [Example 24, 4-(biphenyl-2-yloxy)-3-cyano-N-(1,2,4-thiadiazol-5-yl)benzenesulfonamide]
3 | 270 | N#Cc1cc(S(=O)(=O)Nc2ncns2)ccc1Oc1cc(C(F)(F)F)nn1-c1ccccc1F [Example 88, 3-cyano-4-{[1-(2-fluorophenyl)-3-(trifluoromethyl)-1H-pyrazol-5-yl]oxy}-N-1,2,4-thiadiazol-5-ylbenzenesulfonamide]
4 | 2200 | Cc1cc(S(=O)(=O)Nc2ncns2)ccc1Oc1ccn(Cc2ccc(Cl)cc2)n1 [Example 257, 4-{[1-(4-chlorobenzyl)-1H-pyrazol-3-yl]oxy}-3-methyl-N-1,2,4-thiadiazol-5-ylbenzenesulfonamide]
5 | 37200 | Cn1nc(-c2ccccc2)cc1Oc1ccc(S(=O)(=O)Nc2ncns2)cc1C#N [Example 82, 3-cyano-4-[(1-methyl-3-phenyl-1H-pyrazol-5-yl)oxy]-N-1,2,4-thiadiazol-5-ylbenzenesulfonamide]
6 | 3140 | N#Cc1cc(S(=O)(=O)Nc2ncns2)ccc1Oc1cccnc1-c1ccccc1 [Example 22, 3-cyano-4-[(2-phenylpyridin-3-yl)oxy]-N-1,2,4-thiadiazol-5-ylbenzenesulfonamide]

Same assay, conditions: estimated IC50; hSCN9A HEK cells, PatchXpress platform; Examples 283-814

Row | IC50 [nM] | Compound
7 | 20 | N#Cc1cc(S(=O)(=O)Nc2nccs2)ccc1Oc1ccc(Br)cc1-c1ccn[nH]1 [Example 461, 4-[4-bromo-2-(1H-pyrazol-5-yl)phenoxy]-3-cyano-N-1,3-thiazol-2-ylbenzenesulfonamide]
8 | 2500 | CCn1nc(C(F)(F)F)cc1-c1ccc(Oc2ccc(S(=O)(=O)Nc3nc(C)ns3)cc2C#N)cc1 [Example 291, 3-cyano-4-{4-[1-ethyl-3-(trifluoromethyl)-1H-pyrazol-5-yl]phenoxy}-N-(3-methyl-1,2,4-thiadiazol-5-yl)benzenesulfonamide]
9 | 3100 | N#Cc1cc(S(=O)(=O)Nc2nccs2)ccc1Oc1cccc(-c2ccccn2)c1 [Example 449, 3-cyano-4-(3-pyridin-2-ylphenoxy)-N-1,3-thiazol-2-ylbenzenesulfonamide]
10 | 2900 | O=S(=O)(Nc1cscn1)c1cc(Cl)c(Oc2ccc(F)cc2-c2c[nH]nn2)cc1F [Example 521, 5-chloro-2-fluoro-4-[4-fluoro-2-(1H-1,2,3-triazol-4-yl)phenoxy]-N-1,3-thiazol-4-ylbenzenesulfonamide]
11 | 190 | N#Cc1cc(S(=O)(=O)Nc2ncc(F)s2)ccc1Oc1ccc(CCCO)cc1-c1cn[nH]c1 [Example 714, 3-cyano-N-(5-fluoro-1,3-thiazol-2-yl)-4-[4-(3-hydroxypropyl)-2-(1H-pyrazol-4-yl)phenoxy]benzenesulfonamide]
12 | 250 | O=S(=O)(Nc1cscn1)c1cc(Cl)c(Oc2ccc(F)cc2-c2ccn[nH]2)cc1F [Example 658, 5-chloro-2-fluoro-4-[4-fluoro-2-(1H-pyrazol-5-yl)phenoxy]-N-1,3-thiazol-4-ylbenzenesulfonamide]
13 | >1000 | N#Cc1cc(S(=O)(=O)Nc2cscn2)ccc1Oc1ccc(F)cc1-c1cnn(CC(F)(F)F)c1 [Example 415, 4-{4-fluoro-2-[1-(2,2,2-trifluoroethyl)-1H-pyrazol-4-yl]phenoxy}-3-cyano-N-1,3-thiazol-4-ylbenzenesulfonamide]

Same assay, conditions: estimated IC50; hSCN9A HEK cells, PatchXpress platform; Examples 815-1040

Row | IC50 [nM] | Compound
14 | 2300 | N#Cc1cc(S(=O)(=O)Nc2nccs2)ccc1Oc1ccccc1-c1cncnc1 [Example 985, 3-cyano-4-(2-pyrimidin-5-ylphenoxy)-N-1,3-thiazol-2-ylbenzenesulfonamide]
15 | 340 | N#Cc1cc(S(=O)(=O)Nc2ncns2)ccc1Oc1ccc(Cl)cc1-c1cc(N2CCOCC2)ncn1 [Example 896, 4-[4-chloro-2-(6-morpholin-4-ylpyrimidin-4-yl)phenoxy]-3-cyano-N-1,2,4-thiadiazol-5-ylbenzenesulfonamide]
